In patent publication US20080287469A1, “Phosphoinositide 3-Kinase Inhibitors for Inhibiting Leukocyte Accumulation” (priority 2005, published 2008):

Biological target: Insulin receptor tyrosine kinase (Homo sapiens, UniProt P06213)
Test: Protein kinase/phosphatase panel: insulin receptor tyrosine kinase
Type: biochemical
Conditions: inhibitor 10 μM; 100 μM ATP

Insulin receptor tyrosine kinase, sequence (P06213 28-1382): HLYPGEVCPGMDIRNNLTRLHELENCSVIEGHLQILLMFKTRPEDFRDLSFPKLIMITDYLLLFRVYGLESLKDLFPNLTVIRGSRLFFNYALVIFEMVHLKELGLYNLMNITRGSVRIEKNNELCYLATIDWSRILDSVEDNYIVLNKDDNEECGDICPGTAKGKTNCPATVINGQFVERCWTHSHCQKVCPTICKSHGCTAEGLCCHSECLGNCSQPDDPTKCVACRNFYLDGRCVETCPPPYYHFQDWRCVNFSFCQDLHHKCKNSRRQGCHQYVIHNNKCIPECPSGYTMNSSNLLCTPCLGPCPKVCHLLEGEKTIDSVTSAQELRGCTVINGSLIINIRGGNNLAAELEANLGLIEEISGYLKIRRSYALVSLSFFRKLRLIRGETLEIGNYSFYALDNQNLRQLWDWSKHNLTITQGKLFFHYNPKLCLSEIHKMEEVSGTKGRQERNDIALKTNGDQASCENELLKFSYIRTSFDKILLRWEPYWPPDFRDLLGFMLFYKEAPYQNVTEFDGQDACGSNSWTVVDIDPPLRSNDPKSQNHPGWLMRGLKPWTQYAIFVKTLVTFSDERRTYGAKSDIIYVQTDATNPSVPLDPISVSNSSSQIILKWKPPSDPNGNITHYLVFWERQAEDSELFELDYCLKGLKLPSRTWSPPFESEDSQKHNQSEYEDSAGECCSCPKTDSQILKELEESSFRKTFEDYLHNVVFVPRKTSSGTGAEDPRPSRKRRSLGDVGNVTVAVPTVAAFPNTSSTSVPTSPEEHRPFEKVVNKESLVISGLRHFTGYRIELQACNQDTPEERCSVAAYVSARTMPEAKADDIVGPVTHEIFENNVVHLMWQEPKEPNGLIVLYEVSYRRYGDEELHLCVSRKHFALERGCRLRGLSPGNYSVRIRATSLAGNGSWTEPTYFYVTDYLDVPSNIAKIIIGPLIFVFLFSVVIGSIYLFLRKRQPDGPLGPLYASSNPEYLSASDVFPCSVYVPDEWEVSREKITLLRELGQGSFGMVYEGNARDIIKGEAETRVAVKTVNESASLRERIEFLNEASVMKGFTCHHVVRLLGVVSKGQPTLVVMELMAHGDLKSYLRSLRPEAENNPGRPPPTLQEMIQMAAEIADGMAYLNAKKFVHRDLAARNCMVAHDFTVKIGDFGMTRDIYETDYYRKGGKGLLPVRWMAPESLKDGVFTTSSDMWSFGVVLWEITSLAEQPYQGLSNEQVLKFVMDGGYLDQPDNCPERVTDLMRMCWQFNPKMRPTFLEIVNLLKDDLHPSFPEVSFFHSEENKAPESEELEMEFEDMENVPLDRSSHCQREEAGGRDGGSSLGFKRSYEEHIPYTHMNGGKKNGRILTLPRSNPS

## Cc1ccccc1-n1c(Cn2cnc3c(N)ncnc32)nc2cccc(C)c2c1=O
  Activity (% of control) ± SD: 98 ± 6.2 % of control
